PubChem BioAssay AID2060624 (Molecular Pharmacology Branch, DTP, NCI, 2025)
Several values for one entry are separate records, joined by “and”; a condition that tells them apart may be missing. Equal entries are not always repeated.

System: 217524-143-R1-J4-PDC spheroids with HUVEC/MSC, viability
Assay: Anticancer human tumor 217524-143-R1-J4-PDC patient-derived pancreatic carcinoma cell line growth inhibition [CLK]
Details: for viability, T/C: stronger effect = lower value; active = viability on the fitted dose curve at most 10% of control; inactive = the rest
From the text: A high-throughput screen of multi-cell type tumor spheroids was designed to identify active combinations of […] and targeted small molecules. Complex spheroids include a stromal component modeled by human endothelial cells (HUVEC) and fibroblasts modeled by human mesenchymal stem cells (MSCs). The concentration ranges selected for each drug and investigational agent were based upon clinically achievable concentrations if the clinical Cmax of the agent was known.
Compounds. The drugs and investigational agents: cirtuvivint (SM08502; NSC835563), CC-671 (NSC850746), vemurafenib (NSC761431), tapotoclax (NSC804041), sotorasib (NSC818433), adagrasib (NSC831453), MRTX-1133 (NSC836407), BAY2416964 (NSC825713), copanlisib (NSC816437), inavolisib (NSC800729), abemaciclib (NSC768073), osimertinib (NSC779217), entinostat (NSC756642), eltanexor (KPT-8602, NSC794443), venetoclax (NSC766270), ceralasertib (NSC777638), bortezomib (NSC756655), olaparib (NSC753686), talazoparib (NSC767125), alisertib (NSC759677), peposertib (NSC802822), gemcitabine (NSC613327), 5-fluorouracil (NSC19893), SN-38 (NSC673596), oxaliplatin (NSC266046), paclitaxel (NSC125973), and doxorubicin (NSC123127), were obtained from the National Cancer Institute (NCI) Developmental Therapeutics Program Chemical Repository. The FDA-approved anticancer drug set is available from the Developmental Therapeutics Program at https://dtp.cancer.gov/organization/dscb/obtaining/available plates.htm. […] The stock solutions were prepared in dimethyl sulfoxide (DMSO, Sigma-Aldrich, St. Louis, MO, cat. D2650), except for the platinum complexes which were prepared in saline (Quality Biological, Gaithersburg, MD, cat. 114-055-101), at 800-fold the tested concentration and stored at -70 degrees C prior to their use. All drugs and investigational agents were tested over a range starting from a high concentration at or near the clinical Cmax and decreasing in half-log increments. If the clinical Cmax for an agent had not been determined, the highest concentration tested was 10 microM.
Cell Culture. All cells were maintained in an incubator at 37 degrees C and 5% CO2 with 95% humidity. The PDC lines were cultured according to standard operating procedures established by the NCI PDMR. Briefly, all PDCs were thawed and cultured in Matrigel-coated flasks prepared with a working solution of 1X Ham's F-12 nutrient mix, without supplementation (Invitrogen, Waltham, MA, cat. 11765054), 100 U/mL penicillin-streptomycin (Invitrogen, cat. 15140122), and 2.5% Matrigel (Corning Inc., Corning, NY, cat. 354248) for the first three passages. The 947758-054-R-J2-PDC line was cultured in 6B/Colon 1A media, which includes advanced DMEM/F-12 (Thermo Fisher Scientific, cat. 12634028), 10 mM HEPES (Thermo Fisher Scientific, cat. 15630080), 1X GlutaMAX supplement (Thermo Fisher Scientific, cat. 35050061), 0.1 mg/mL primocin (InvivoGen, cat. ant-pm-2), 10% defined fetal bovine serum, heat inactivated (HyClone Laboratories Inc., cat. SH30070.03HI), 1.25 mM N-Acetyl-L-cysteine (Sigma-Aldrich, cat. A9165), 10 mM nicotinamide (Sigma-Aldrich, cat. N0636), 1X B-27 supplement (Thermo Fisher Scientific, cat. 17504044), 1X N-2 supplement (Thermo Fisher Scientific, cat. 17502048), and 10 microM Y-27632 dihydrochloride (Tocris Bioscience, cat. 1254). The 876862-298-R-J1-PDC was cultured in 6E media, which includes all 6B/Colon 1A media components plus 50% L-WRN conditioned media (ATCC, cat. CRL-3276), 50 ng/mL recombinant human EGF recombinant protein (hEGF; Thermo Fisher Scientific, cat. PHG0311), 10 ng/mL recombinant human fibroblast growth factor 10 (hGFG-10; PeproTech, cat. 100-26), 1 ng/mL recombinant human fibroblast growth factor 2 (hFGF-2; PeproTech, cat. 100-18B), and 1 µM prostaglandin E2 (PGE2; Tocris, cat. 2296). The 227483-062-R1-J1-PDC line was cultured in Panc media, containing all 6E components except hFGF-2, with the addition of 500 nM SB-431542 (Selleckchem, cat. S1067) and 10 nM gastrin (Tocris, cat. 3006). […]
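Note: spheroids exposed to agents for seven days before reading.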

CCN1CCN(Cc2ccc(Nc3ncc(F)c(-c4cc(F)c5nc(C)n(C(C)C)c5c4)n3)nc2)CC1
200 nM and 64 nM: IC50 (curve of compound)
inactive: viability, T/C (compound 0.00316 µM) 104% and 92.1% | viability, T/C (compound 0.01 µM) 74.8% and 70.1% | viability, T/C (compound 0.0316 µM) 90.5% and 66.1% | viability, T/C (compound 0.1 µM) 61.9% and 40.7% | viability, T/C (compound 0.316 µM) 40.3% and 33.4% | viability, T/C (compound 1 µM) 44% and 39.1%

CCc1c2c(nc3ccc(O)cc13)-c1cc3c(c(=O)n1C2)COC(=O)[C@]3(O)CC
active: viability, T/C (compound 1 µM) 5.13% and 2.88%
3.31 nM and 4.7 nM: IC50 (curve of compound)
inactive: viability, T/C (compound 0.00316 µM) 51.5% and 55.3% | viability, T/C (compound 0.01 µM) 42% and 40.3% | viability, T/C (compound 0.0316 µM) 33.3% and 33.9% | viability, T/C (compound 0.1 µM) 26.8% and 28.3% | viability, T/C (compound 0.316 µM) 20.4% and 16.5%

CNC(=O)c1ccc(Nc2nc(OC3CCCC3)c3c(-c4ccc5nc(C)oc5c4)c[nH]c3n2)c(OC)c1
96.4 nM [middle of 12 runs]: IC50 (compound alone, run of 08/01/2023)
inactive: viability, T/C (compound 0.0316 µM) 91.6% [middle of 12 runs] | viability, T/C (compound 0.1 µM) 46.5% [middle of 12 runs] | viability, T/C (compound 0.316 µM) 37.7% [middle of 12 runs] | viability, T/C (compound 1 µM) 31.2% [middle of 12 runs] | viability, T/C (compound 3.16 µM) 27.4% [middle of 12 runs] | viability, T/C (compound 10 µM) 27.3% [middle of 12 runs]

COC1C=CCC(C)C(C)S(=O)(=O)NC(=O)c2ccc3c(c2)N(CC2CCC21)CC1(CCCc2cc(Cl)ccc21)CO3 (configuration not stated)
inactive: viability, T/C (compound 0.0316 µM) 93.3% and 85.4% | viability, T/C (compound 0.1 µM) 112% and 93.6% | viability, T/C (compound 0.316 µM) 112% | viability, T/C (compound 1 µM) 123% and 108% | viability, T/C (compound 3.16 µM) 125% and 110% | viability, T/C (compound 10 µM) 26.2% and 28.4%
7310 nM and 7140 nM: IC50 (curve of compound)

COc1c(OCCCN2CCOCC2)ccc2c3n(c(=NC(=O)c4cnc(N)nc4)nc12)CCN3
7.04 nM and 5.59 nM: IC50 (curve of compound)
active: viability, T/C (compound 0.1 µM) 5% and 4.43% | viability, T/C (compound 0.316 µM) 2.63% and 3% | viability, T/C (compound 1 µM) 2.47% and 2.32%
inactive: viability, T/C (compound 0.00316 µM) 74.2% and 71.6% | viability, T/C (compound 0.01 µM) 39.2% and 27.7% | viability, T/C (compound 0.0316 µM) 16.1% and 11.7%

Cn1ncnc1[C@H]1c2n[nH]c(=O)c3cc(F)cc(c23)N[C@@H]1c1ccc(F)cc1
inactive: viability, T/C (compound 0.000316 µM) 101% and 96.4% | viability, T/C (compound 0.001 µM) 93.3% and 90.1% | viability, T/C (compound 0.00316 µM) 103% and 102% | viability, T/C (compound 0.01 µM) 85.5% and 93.6% | viability, T/C (compound 0.0316 µM) 113% and 106% | viability, T/C (compound 0.1 µM) 102% and 83.5%
> 100 nM: IC50 (curve of compound)

NC(=O)C(=Cn1cnc(-c2cc(C(F)(F)F)cc(C(F)(F)F)c2)n1)c1cncnc1
29 nM and 18.2 nM: IC50 (curve of compound)
inactive: viability, T/C (compound 0.00949 µM) 73.8% and 67.8% | viability, T/C (compound 0.03 µM) 49.3% and 36.5% | viability, T/C (compound 0.0949 µM) 27.8% and 21.1% | viability, T/C (compound 0.3 µM) 21.7% and 27.9% | viability, T/C (compound 0.949 µM) 25.6% and 28.4% | viability, T/C (compound 3 µM) 23.2% and 20.4%

Nc1ccccc1NC(=O)c1ccc(CNC(=O)OCc2cccnc2)cc1
5090 nM and 6150 nM: IC50 (curve of compound)
inactive: viability, T/C (compound 0.0316 µM) 112% and 117% | viability, T/C (compound 0.1 µM) 102% and 93.9% | viability, T/C (compound 0.316 µM) 97.4% and 104% | viability, T/C (compound 1 µM) 89.9% and 98.1% | viability, T/C (compound 3.16 µM) 61.6% and 70.6% | viability, T/C (compound 10 µM) 31.1% and 34.7%

Nc1ccn(C2OC(CO)C(O)C2(F)F)c(=O)n1 (configuration not stated)
inactive: viability, T/C (compound 0.0316 µM) 53.5% and 66.5% | viability, T/C (compound 0.1 µM) 28.6% and 26% | viability, T/C (compound 0.316 µM) 22.5% and 22.4% | viability, T/C (compound 1 µM) 24.3% and 26% | viability, T/C (compound 3.16 µM) 25.1% and 29.9% | viability, T/C (compound 10 µM) 29.4% and 29.8%
37.1 nM and 51.3 nM: IC50 (curve of compound)

O=C(c1cc(Cc2n[nH]c(=O)c3ccccc23)ccc1F)N1CCN(C(=O)C2CC2)CC1
inactive: viability, T/C (compound 0.0316 µM) 100% and 92.1% | viability, T/C (compound 0.1 µM) 81.1% and 72% | viability, T/C (compound 0.316 µM) 103% and 91.9% | viability, T/C (compound 1 µM) 89.3% and 89.4% | viability, T/C (compound 3.16 µM) 96.2% and 123% | viability, T/C (compound 10 µM) 86.3% and 79.1%
> 10000 nM: IC50 (curve of compound)

O=c1[nH]cc(F)c(=O)[nH]1
inactive: viability, T/C (compound 0.0316 µM) 94.6% and 72.3% | viability, T/C (compound 0.1 µM) 93.9% and 80.7% | viability, T/C (compound 0.316 µM) 56.5% and 62.8% | viability, T/C (compound 1 µM) 38% and 36.6% | viability, T/C (compound 3.16 µM) 36.2% and 32.5% | viability, T/C (compound 10 µM) 29.7% and 25.7%
457 nM and 563 nM: IC50 (curve of compound)
